Measured values: patent US20050232924A1, “Antibodies and/or conjugates thereof which bind to the amino terminal fragment of urokinase, compositions and uses thereof” (Attenuon LLC, priority 2003, published 2005)

Columns and labels:
MDA-MB-231 cells [1] = test: Distribution of Dox by fluorescence microscopy; format: cell-based, human; conditions: 1.6 μM, 24 h; FIG. 14
Protocol: To further characterize the ATN-291-Dox conjugates the distribution of Dox was monitored by fluorescence microscopy. MDA-MB-231 cells grown on glass chamber slides were incubated with either 1.6 μM Dox or 1.6 μM ATN-291-Dox for 24 h under the same conditions used for the MTT assay. Following incubation, the supernatant was removed and the cells washed extensively with PBS. Cells were fixed in paraformaldehyde, mounted and observed by fluorescence microscopy.

MDA-MB-231 cells [2] = test: MTT proliferation assay; format: cell-based, human; conditions: 10 μM; FIG. 13A
Protocol: The ability of ATN-291-Dox to inhibit proliferation of MDA-MB-231 cells was tested in an MTT assay. […] A dose titration was performed with the ATN-291-Dox conjugate. As shown in FIG. 10B the conjugate inhibited proliferation with an IC-50 of ˜1.6 μM.

## COc1cccc2c1C(=O)c1c(O)c3c(c(O)c1C2=O)C[C@@](O)(C(=O)CO)C[C@@H]3O[C@H]1C[C@H](N)[C@H](O)[C@H](C)O1 [Dox, doxorubicin]
MDA-MB-231 cells [1]
  cellular localization of Dox fluorescence: primarily localized to the nucleus of treated cells
MDA-MB-231 cells [2]
  effect on cell proliferation: significantly inhibited proliferation
